According to ChEMBL document CHEMBL3860026, “Depsidones from Lichens as Natural Product Inhibitors of M-Phase Phosphoprotein 1, a Human Kinesin Required for Cytokinesis” (J Nat Prod, 2016):
Values after ≈ are worked out from the molar mass of the structure shown. Active and inactive are the calls of the source. No cut-off for these calls is given here.

What was measured:
[1] = biological target: T1, Kinesin-like protein KIF20B (Homo sapiens, UniProt Q96Q89); test: Inhibition of basal ATPase activity of N-terminal His6-tagged/SUMO-fused human MPP1 motor domain (57 to 491 residues) expressed in Escherichia coli BL21 CodonPlus by pyruvate kinase/lactate dehydrogenase-linked assay
[2] = biological target: T1, Kinesin-like protein KIF20B; test: Inhibition of microtubule-stimulated ATPase activity of N-terminal His6-tagged/SUMO-fused human MPP1 motor domain (57 to 491 residues) expressed in Escherichia coli BL21 CodonPlus by pyruvate kinase/lactate dehydrogenase-linked assay
[3] = biological target: T1, Kinesin-like protein KIF20B; test: Inhibition of microtubule-stimulated ATPase activity of N-terminal His6-tagged/SUMO-fused human MPP1 motor domain (2 to 477 residues) expressed in Escherichia coli BL21 CodonPlus by pyruvate kinase/lactate dehydrogenase-linked assay
[4] = biological target: T1, Kinesin-like protein KIF20B; test: Inhibition of basal ATPase activity of N-terminal His6-tagged/SUMO-fused human MPP1 motor domain (2 to 477 residues) expressed in Escherichia coli BL21 CodonPlus in presence of 0.1% Tween-20 by pyruvate kinase/lactate dehydrogenase-linked assay
[5] = Cytotoxicity against human J82 cells assessed as growth inhibition after 72 hrs by Alamar Blue assay; format: functional, cell-based; details: J82, 72 h
[6] = biological target: T2, Kinesin-like protein KIF9 (Homo sapiens) (UniProt Q9HAQ2); test: Inhibition of basal ATPase activity of human Kif9 at 200 uM by pyruvate kinase/lactate dehydrogenase-linked assay
T2 sequence (whole entry): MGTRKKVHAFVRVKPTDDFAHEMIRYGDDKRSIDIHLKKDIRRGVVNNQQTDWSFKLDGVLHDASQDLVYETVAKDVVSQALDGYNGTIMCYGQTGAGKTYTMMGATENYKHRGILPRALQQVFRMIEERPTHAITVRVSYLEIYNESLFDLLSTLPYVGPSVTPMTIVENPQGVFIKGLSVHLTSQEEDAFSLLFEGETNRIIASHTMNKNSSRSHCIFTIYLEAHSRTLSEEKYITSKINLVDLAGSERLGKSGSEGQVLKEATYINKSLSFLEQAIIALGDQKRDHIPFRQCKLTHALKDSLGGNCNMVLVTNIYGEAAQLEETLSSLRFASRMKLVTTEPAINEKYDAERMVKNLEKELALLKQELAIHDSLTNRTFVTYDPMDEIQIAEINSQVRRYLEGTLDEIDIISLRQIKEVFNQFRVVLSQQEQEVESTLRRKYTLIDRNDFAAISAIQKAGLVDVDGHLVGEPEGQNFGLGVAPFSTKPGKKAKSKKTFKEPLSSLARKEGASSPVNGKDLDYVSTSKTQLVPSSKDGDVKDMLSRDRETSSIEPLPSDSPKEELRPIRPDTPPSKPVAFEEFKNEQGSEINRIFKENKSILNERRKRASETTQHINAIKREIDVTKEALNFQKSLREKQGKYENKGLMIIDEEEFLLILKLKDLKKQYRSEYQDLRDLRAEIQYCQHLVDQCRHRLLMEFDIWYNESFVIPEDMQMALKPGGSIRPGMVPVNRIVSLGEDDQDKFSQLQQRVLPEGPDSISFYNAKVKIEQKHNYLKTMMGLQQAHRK

[7] = biological target: T2, Kinesin-like protein KIF9 (Homo sapiens); test: Inhibition of microtubule-stimulated ATPase activity of human Kif9 at 200 uM by pyruvate kinase/lactate dehydrogenase-linked assay
[8] = Solubility of the compound in phosphate buffered saline at pH 6 after 2 hrs by turbidimetric method; format: physicochemical
[9] = Passive permeability of the compound assessed as compound recovery at 10 uM after 5 hrs by PAMPA; format: ADME; details: read-out: Drug recovery
[10] = Half life in mouse liver microsomes at 3 uM by LC-MS/MS method; format: ADME
[11] = Chemical stability of the compound at 5 uM after 15 to 120 mins by LC-MS/MS method; format: physicochemical

T1 sequence (Q96Q89 whole entry, the tested form may be a part): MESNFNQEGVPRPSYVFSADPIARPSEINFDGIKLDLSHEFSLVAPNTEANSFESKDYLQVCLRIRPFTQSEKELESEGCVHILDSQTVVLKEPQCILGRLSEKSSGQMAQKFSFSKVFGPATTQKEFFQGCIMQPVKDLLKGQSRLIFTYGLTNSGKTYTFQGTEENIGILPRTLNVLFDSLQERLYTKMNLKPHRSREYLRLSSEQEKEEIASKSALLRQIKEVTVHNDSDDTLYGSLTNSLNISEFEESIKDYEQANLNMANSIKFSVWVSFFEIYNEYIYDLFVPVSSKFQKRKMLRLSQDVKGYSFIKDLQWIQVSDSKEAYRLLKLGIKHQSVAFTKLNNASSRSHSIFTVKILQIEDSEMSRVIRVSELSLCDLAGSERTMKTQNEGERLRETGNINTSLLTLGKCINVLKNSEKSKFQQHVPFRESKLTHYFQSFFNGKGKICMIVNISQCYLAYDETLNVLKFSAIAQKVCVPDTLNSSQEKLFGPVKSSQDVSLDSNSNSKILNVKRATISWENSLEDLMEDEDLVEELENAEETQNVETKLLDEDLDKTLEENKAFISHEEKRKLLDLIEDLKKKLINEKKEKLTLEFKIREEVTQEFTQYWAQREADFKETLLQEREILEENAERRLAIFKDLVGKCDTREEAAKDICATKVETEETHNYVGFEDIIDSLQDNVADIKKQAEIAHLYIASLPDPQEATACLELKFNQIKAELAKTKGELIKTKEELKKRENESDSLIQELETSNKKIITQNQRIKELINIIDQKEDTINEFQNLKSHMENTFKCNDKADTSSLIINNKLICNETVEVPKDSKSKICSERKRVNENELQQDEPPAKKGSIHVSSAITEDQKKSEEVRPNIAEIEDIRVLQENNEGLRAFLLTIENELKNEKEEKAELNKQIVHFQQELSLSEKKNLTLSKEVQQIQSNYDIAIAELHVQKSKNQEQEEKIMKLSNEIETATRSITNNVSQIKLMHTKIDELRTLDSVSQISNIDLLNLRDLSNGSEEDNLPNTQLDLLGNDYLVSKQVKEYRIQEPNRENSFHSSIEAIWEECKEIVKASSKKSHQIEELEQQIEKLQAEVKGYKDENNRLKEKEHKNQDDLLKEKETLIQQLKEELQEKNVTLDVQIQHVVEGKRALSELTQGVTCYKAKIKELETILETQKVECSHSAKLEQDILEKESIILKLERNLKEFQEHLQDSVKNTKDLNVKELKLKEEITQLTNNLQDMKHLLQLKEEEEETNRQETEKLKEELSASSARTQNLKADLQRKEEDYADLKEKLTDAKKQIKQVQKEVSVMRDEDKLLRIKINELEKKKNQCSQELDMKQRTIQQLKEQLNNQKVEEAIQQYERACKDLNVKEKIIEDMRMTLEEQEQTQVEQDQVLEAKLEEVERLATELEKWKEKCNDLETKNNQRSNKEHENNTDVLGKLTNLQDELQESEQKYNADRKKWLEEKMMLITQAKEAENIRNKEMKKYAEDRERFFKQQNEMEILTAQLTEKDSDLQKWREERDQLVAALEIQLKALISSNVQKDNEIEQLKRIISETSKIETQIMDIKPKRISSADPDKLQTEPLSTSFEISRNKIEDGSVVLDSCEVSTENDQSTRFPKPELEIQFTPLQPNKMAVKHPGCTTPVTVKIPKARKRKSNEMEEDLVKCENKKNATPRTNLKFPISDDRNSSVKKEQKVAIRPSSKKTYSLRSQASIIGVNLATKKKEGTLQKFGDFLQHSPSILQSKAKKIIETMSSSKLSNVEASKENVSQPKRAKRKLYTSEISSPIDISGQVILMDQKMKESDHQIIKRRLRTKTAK

IC50 [1]: 9.9 µM | Imax [1]: 85% | IC50 [2]: 5.8 µM | Imax [2]: 90% | IC50 [3]: 4.6 µM | Imax [3]: 95% | inhibition [4]: Active | inhibition [6]: 40% | inhibition [7]: 50% | solubility kinetic at 2 h [8]: 65 µM (≈ 30.6 µg/mL) | recovery at 5 h, 10 µM [9]: 77% | half-life at 3 µM [10]: 22.5 min | Stability [11]: Stable
SMILES: CCCCCC(=O)Cc1cc(O)cc2c1C(=O)Oc1cc(O)c(C(=O)O)c(CCCCC)c1O2 [PHYSODIC ACID]
EC50 [5]: 38.2 µM
